The target of experiment [1] is T1, Lignostilbene alpha, beta-dioxygenase (Sphingomonas paucimobilis, UniProt O87171).
T1 sequence (O87171 whole entry): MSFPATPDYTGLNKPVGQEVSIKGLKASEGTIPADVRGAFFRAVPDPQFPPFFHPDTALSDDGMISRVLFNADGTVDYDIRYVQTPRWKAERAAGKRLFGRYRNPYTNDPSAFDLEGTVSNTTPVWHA
The experiment is described as follows: Inhibitory concentration against Lignostilbene-alpha, beta-dioxygenase (LSD) was determined in 2 mL of 50 mM […] buffer containing 4 microg enzyme/mL at 30 degree C.

In experiment [2] the target is T1, Lignostilbene alpha, beta-dioxygenase. The experiment is described as follows: Tested for the inhibition of Lignostilbene-alpha, beta-dioxygenase (LSD).
For experiment [3] the target is unchanged. As to the kind of experiment: Inhibitory concentration against Lignostilbene alpha beta-dioxygenase (LSD) was determined in 2 mL of 50 mM […] buffer containing 4 microg enzyme/mL at 30 degree C.

Results on seven compounds are retold here after ChEMBL document CHEMBL1135279, “Design and synthesis of lignostilbene-alpha,beta-dioxygenase inhibitors” (Bioorg Med Chem Lett, 2002).

Turning to `Oc1ccc(/C(F)=C/c2ccccc2)cc1`, in experiment [1], the concentration for half-maximal inhibition (IC50) came out at 3 µM. The compound also had a Ki in experiment [2] of 0.98 µM. `C/C(=C\c1ccccc1)c1ccccc1` registered an IC50 in experiment [1] of over 100 µM. In experiment [3], `C/C(=C/c1ccccc1)c1ccccc1` displayed a half-inhibitory concentration (IC50) of 22 µM. `C/C(=C/c1ccc(O)cc1)c1ccccc1` registered an IC50 in experiment [3] of 7 µM.

As for `F/C(=C\c1ccccc1)c1ccccc1`, in experiment [1], the 50% inhibitory concentration (IC50) was over 100 µM. Compound `C=C(C)c1ccc(O)cc1` yielded a half-inhibitory concentration (IC50) in experiment [1] of 12 µM. Same read-out and setting: then `C/C(=C\c1ccc(O)cc1)c1ccccc1`, with 15 µM.
